Data reported in patent US9302999B2, “Substituted triazoles as herbicides” (E. I. DU PONT DE NEMOURS AND COMPANY, priority 2012, dated 2016).
Where two headings read alike, the source gives them in different places.

Tests used:
Type in all cases: in vivo
[1] = test system: barnyardgrass (Echinochloa crus-galli); assay: Test A pre-/postemergence: barnyardgrass; details: for pest or weed control at 125 g/ha / pest or weed control at 500 g/ha: Echinochloa crus-galli, 240 h
In short: (§1)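 Injury is scored visually on a scale where 0 means no effect and 100 complete control, comparing treated with untreated plants after approximately ten greenhouse days. Both preemergence and postemergence applications are made at the same time.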

[2] = test system: morningglory (Ipomoea spp.); assay: Test A pre-/postemergence: morningglory; details: for pest or weed control at 125 g/ha / pest or weed control at 500 g/ha: Ipomoea, 240 h
In short: as §1

corn (Zea mays) = assay: Test A pre-/postemergence: corn
In short: as §1

rice (Oryza sativa) = assay: Test B flooded paddy: rice; details: Flood, applied to paddy water at 2-leaf stage, visually evaluated after 13 to 15 days
In short: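 Greenhouse assay lasting 13 to 15 days. Treatment was into water flooding pots 3 cm deep, at the 2-leaf stage, with that level sustained afterwards. Scores compare treated with control plants visually, 100 denoting complete control and 0 no effect; a dash marks no test result.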

[3] = test system: galium (catchweed bedstraw, Galium aparine); assay: Test C pre-/postemergence: galium
In short: (§2)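 Visual injury scored 0–100 (100 = complete control) against untreated controls after 13–15 greenhouse days. Surfactant-containing solvent formulations applied either to soil after sowing (loam/sand) or over 1- to 4-leaf plants, 2–18 cm tall.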

[4] = test system: johnsongrass (Sorghum halepense); assay: Test C pre-/postemergence: johnsongrass
In short: as §2

kochia (Kochia scoparia) = assay: Test C pre-/postemergence: kochia; details: Postemergence
In short: as §2

[5] = test system: lambsquarters (Chenopodium album); assay: Test C pre-/postemergence: lambsquarters
In short: as §2

[6] = test system: ragweed (common ragweed, Ambrosia elation); assay: Test C pre-/postemergence: ragweed
In short: as §2

[7] = test system: velvetleaf (Abutilon theophrasti); assay: Test C pre-/postemergence: velvetleaf
In short: as §2

[8] = Postemergence, 31 g ai/ha, scale 0 to 100 (0 no effect, 100 complete control)
[9] = Postemergence, 62 g ai/ha, scale 0 to 100 (0 no effect, 100 complete control)
[10] = Postemergence, 125 g ai/ha, scale 0 to 100, 0 no effect, 100 complete control
[11] = Postemergence, 250 g ai/ha, scale 0 to 100
[12] = Preemergence, 31 g ai/ha, scale 0 (no effect) to 100 (complete control)
[13] = Preemergence, 62 g ai/ha, scale of 0 to 100, 0 is no effect, 100 is complete control
[14] = Preemergence, 125 g ai/ha, scale 0 to 100, 0 no effect, 100 complete control
[15] = Preemergence, 250 g ai/ha, scale 0 to 100, 0 no effect, 100 complete control
[16] = 31 g ai/ha, scale 0 to 100 (0 no effect, 100 complete control)
[17] = 62 g ai/ha, scale 0 to 100 (0 no effect, 100 complete control)
[18] = 125 g ai/ha, scale 0 to 100, 0 no effect, 100 complete control
[19] = Postemergence, 125 g ai/ha, 0 to 100 scale, 0 is no effect, 100 is complete control
[20] = Postemergence, 500 g ai/ha, 0 to 100 scale, 0 is no effect, 100 is complete control
[21] = Preemergence, 125 g ai/ha, 0 to 100 scale where 0 is no effect and 100 is complete control
[22] = Preemergence, 500 g ai/ha, 0 to 100 scale (0 no effect, 100 complete control)
[23] = Postemergence, 250 g ai/ha, scale 0 to 100 (0 no effect, 100 complete control)

CCOc1nn(-c2ccc(C(F)(F)F)cc2)nc1Cc1ccnc(C(F)(F)F)c1 [Compound 164, 4-[[5-ethoxy-2-[4-(trifluoromethyl)phenyl]-2H-1,2,3-triazol-4-yl]methyl]-2-(trifluoromethyl)pyridine]
pest or weed control at 125 g/ha ([1]; post-emergence, Postemergence, 125 g ai/ha, 0 to 100 scale, 0 is no effect, 100 is complete control, read-out: Plant response rating, Barnyardgrass): 90% | pest or weed control at 500 g/ha ([1]; post-emergence, Postemergence, 500 g ai/ha, 0 to 100 scale, 0 is no effect, 100 is complete control, read-out: Barnyardgrass plant response rating): 90% | pest or weed control at 125 g/ha ([1]; pre-emergence, Preemergence, 125 g ai/ha, 0 to 100 scale where 0 is no effect and 100 is complete control, read-out: Plant response rating, Barnyardgrass): 90% | pest or weed control at 500 g/ha ([1]; pre-emergence, Preemergence, 500 g ai/ha, 0 to 100 scale (0 no effect, 100 complete control), read-out: Plant response rating, Barnyardgrass): 100% | pest or weed control at 125 g/ha ([2]; post-emergence, Postemergence, 125 g ai/ha, 0 to 100 scale, 0 is no effect, 100 is complete control, read-out: Plant response rating, Morningglory): 100% | pest or weed control at 500 g/ha ([2]; post-emergence, Postemergence, 500 g ai/ha, 0 to 100 scale, 0 is no effect, 100 is complete control, read-out: Morningglory plant response rating): 100% | pest or weed control at 125 g/ha ([2]; pre-emergence, Preemergence, 125 g ai/ha, 0 to 100 scale where 0 is no effect and 100 is complete control, read-out: Plant response rating, Morningglory): 80% | pest or weed control at 500 g/ha ([2]; pre-emergence, Preemergence, 500 g ai/ha, 0 to 100 scale (0 no effect, 100 complete control), read-out: Plant response rating, Morningglory): 90% | Corn plant response rating (crop injury, 0 = no effect, 100 = complete kill) at 125 g/ha (corn (Zea mays); Zea mays, post-emergence, 240 h, Postemergence, 125 g ai/ha, 0 to 100 scale, 0 is no effect, 100 is complete control): 30% | plant injury at 500 g/ha (corn (Zea mays); Zea mays, post-emergence, 240 h, Postemergence, 500 g ai/ha, 0 to 100 scale, 0 is no effect, 100 is complete control, read-out: Corn plant response rating): 40% | Corn plant response rating (crop injury, 0 = no effect, 100 = complete kill) at 125 g/ha (corn (Zea mays); Zea mays, pre-emergence, 240 h, Preemergence, 125 g ai/ha, 0 to 100 scale where 0 is no effect and 100 is complete control): 30% | Corn plant response rating (crop injury, 0 = no effect, 100 = complete kill) at 500 g/ha (corn (Zea mays); Zea mays, pre-emergence, 240 h, Preemergence, 500 g ai/ha, 0 to 100 scale (0 no effect, 100 complete control)): 30% | Plant response rating, Rice (0 to 100 scale, 0 is no effect, 100 is complete control) (rice (Oryza sativa); 125 g ai/ha): 45 | Plant response rating, Galium [3, 8]: 30 | Plant response rating, Galium [3, 9]: 30 | Plant response rating, Galium [3, 10]: 60 | Plant response rating, Galium [3, 11]: 60 | Plant response rating, Galium [3, 12]: 0 | Plant response rating, Galium [3, 13]: 50 | Plant response rating, Galium [3, 14]: 80 | Plant response rating, Galium [3, 15]: 80 | Plant response rating, Johnsongrass [4, 8]: 10 | Plant response rating, Johnsongrass [4, 9]: 10 | Plant response rating, Johnsongrass [4, 10]: 10 | Plant response rating, Johnsongrass [4, 11]: 10 | Plant response rating, Johnsongrass [4, 12]: 5 | Plant response rating, Johnsongrass [4, 13]: 15 | Plant response rating, Johnsongrass [4, 14]: 20 | Plant response rating, Johnsongrass [4, 15]: 40 | Plant response rating, Kochia (kochia (Kochia scoparia); [16]): 40 | Plant response rating, Kochia (kochia (Kochia scoparia); [17]): 40 | Plant response rating, Kochia (kochia (Kochia scoparia); [18]): 40 | Plant response rating, Kochia (kochia (Kochia scoparia); 250 g ai/ha, scale 0 to 100): 90 | Plant response rating, Lambsquarters [5, 8]: 50 | Plant response rating, Lambsquarters [5, 9]: 55 | Plant response rating, Lambsquarters [5, 10]: 60 | Plant response rating, Lambsquarters [5, 11]: 70 | Plant response rating, Lambsquarters [5, 12]: 85 | Plant response rating, Lambsquarters [5, 13]: 85 | Plant response rating, Lambsquarters [5, 14]: 95 | Plant response rating, Lambsquarters [5, 15]: 95 | Plant response rating, Ragweed [6, 8]: 50 | Plant response rating, Ragweed [6, 9]: 50 | Plant response rating, Ragweed [6, 11]: 60 | Plant response rating, Ragweed [6, 12]: 20 | Plant response rating, Ragweed [6, 13]: 20 | Plant response rating, Ragweed [6, 14]: 25 | Plant response rating, Ragweed [6, 15]: 30 | Plant response rating, Velvetleaf [7, 8]: 25 | Plant response rating, Velvetleaf [7, 9]: 30 | Plant response rating, Velvetleaf [7, 10]: 40 | Plant response rating, Velvetleaf [7, 11]: 40 | Plant response rating, Velvetleaf [7, 12]: 10 | Plant response rating, Velvetleaf [7, 13]: 10 | Plant response rating, Velvetleaf [7, 14]: 30 | Plant response rating, Velvetleaf [7, 15]: 70

CCCc1nn(-c2ccc(F)cc2)nc1Oc1ccnc(C(F)(F)F)c1 [Compound 168]
Plant response rating, Barnyardgrass [1, 19]: 90 | Barnyardgrass plant response rating [1, 20]: 90 | Plant response rating, Barnyardgrass [1, 21]: 90 | Plant response rating, Barnyardgrass [1, 22]: 100 | Plant response rating, Morningglory [2, 21]: 20 | Plant response rating, Morningglory [2, 22]: 50 | Plant response rating, Corn (corn (Zea mays); [19]): 20 | Corn plant response rating (corn (Zea mays); [20]): 50 | Plant response rating, Corn (corn (Zea mays); [21]): 20 | Plant response rating, Corn (corn (Zea mays); [22]): 40 | Plant response rating, Rice (0 to 100 scale, 0 is no effect, 100 is complete control) (rice (Oryza sativa); 250 g ai/ha): 60 | Plant response rating, Galium [3, 8]: 90 | Plant response rating, Galium [3, 9]: 90 | Plant response rating, Galium [3, 10]: 90 | Plant response rating, Galium [3, 23]: 95 | Plant response rating, Galium [3, 12]: 85 | Plant response rating, Galium [3, 13]: 100 | Plant response rating, Galium [3, 14]: 100 | Plant response rating, Galium [3, 15]: 100 | Plant response rating, Johnsongrass [4, 8]: 30 | Plant response rating, Johnsongrass [4, 9]: 55 | Plant response rating, Johnsongrass [4, 10]: 70 | Plant response rating, Johnsongrass [4, 23]: 75 | Plant response rating, Johnsongrass [4, 12]: 75 | Plant response rating, Johnsongrass [4, 13]: 98 | Plant response rating, Johnsongrass [4, 14]: 100 | Plant response rating, Johnsongrass [4, 15]: 100 | Plant response rating, Kochia (kochia (Kochia scoparia); [16]): 90 | Plant response rating, Kochia (kochia (Kochia scoparia); [17]): 90 | Plant response rating, Kochia (kochia (Kochia scoparia); [18]): 90 | Plant response rating, Kochia (kochia (Kochia scoparia); 250 g ai/ha, scale 0 to 100 (0 no effect, 100 complete control)): 90 | Plant response rating, Lambsquarters [5, 8]: 80 | Plant response rating, Lambsquarters [5, 9]: 95 | Plant response rating, Lambsquarters [5, 10]: 95 | Plant response rating, Lambsquarters [5, 23]: 95 | Plant response rating, Lambsquarters [5, 12]: 98 | Plant response rating, Lambsquarters [5, 13]: 98 | Plant response rating, Lambsquarters [5, 14]: 98 | Plant response rating, Lambsquarters [5, 15]: 98 | Plant response rating, Ragweed [6, 8]: 65 | Plant response rating, Ragweed [6, 9]: 65 | Plant response rating, Ragweed [6, 10]: 65 | Plant response rating, Ragweed [6, 23]: 80 | Plant response rating, Ragweed [6, 12]: 10 | Plant response rating, Ragweed [6, 13]: 30 | Plant response rating, Ragweed [6, 14]: 80 | Plant response rating, Ragweed [6, 15]: 80 | Plant response rating, Velvetleaf [7, 8]: 60 | Plant response rating, Velvetleaf [7, 9]: 75 | Plant response rating, Velvetleaf [7, 10]: 80 | Plant response rating, Velvetleaf [7, 23]: 90 | Plant response rating, Velvetleaf [7, 12]: 80 | Plant response rating, Velvetleaf [7, 13]: 100 | Plant response rating, Velvetleaf [7, 14]: 100 | Plant response rating, Velvetleaf [7, 15]: 100
